Test results: US11884682B2, “Compounds and their uses as MIF inhibitors” (NANJING IMMUNOPHAGE BIOTECH CO., LTD., priority 2020, dated 2024)

molecular target: MIF (Homo sapiens (Human), UniProt P14174); test: MIF tautomerase assay using pHPP as substrate; format: biochemical; details: cell-free, pHPP substrate 1.5 mM, MIF 3 nM; mean pIC50 of multiple test results
Procedure: Tautomerase Assay Using pHPP as substrate
This assay measured MIF's tautomerase activity in a cell-free system and was based on the determination of initial rates of the MIF-catalyzed conversion of the ketonic into the enolic tautomer of pHPP. This was achieved by spectrophotometric quantification of the complex between borate and the product of the reaction (enolic pHPP). The substrate was prepared by conversion of the enolic pHPP into its ketonic form. To achieve this, 0.5 M pHPP in methanol was diluted 10-fold with 50 mM sodium acetate buffer at pH 6.0, and then the suspension was shaken for 24 h at room temperature in darkness, and finally stored at 4° C. for not more than 1 week, with 5 min sonication being recommended before use.
Assays were performed in small-volume clear-bottom black 96 or 384-well polystyrene plates (Greiner Bio-One). First, 2 μL of the enzyme solution containing 6 nM of MIF in DPBS, 0.025% w/v BSA, and 300 μM CHAPS was dispensed onto sample and negative control wells using Multidrop Combi with metallic tip cassettes (Thermo Fisher Scientific) previously treated with Sigmacote. Then, 2 μL of the same buffer without MIF was dispensed onto positive control wells. The reaction was started by addition of the following to all wells: 2 μL of substrate solution containing 3 mM ketonic pHPP in 200 mM boric acid, 25 mM sodium phosphate, 0.025% w/v BSA, and 300 μM CHAPS at pH 6.0. In order to remove bubbles, the plate was centrifuged in an Allegra 25R centrifuge (Beckman Coulter, Inc., Brea, CA) at 1000 rpm for 2 min at room temperature. Then, the plate was read in an EnVision. Final concentrations of enzyme and substrate were 3 nM and 1.5 mM, respectively. Initial rates were calculated for each well as the slope of the absorbance progress curve.
The data mentioned below represents a mean pIC50 value of multiple test results. It is understood that the data illustrated below may have reasonable variation depending on the specific conditions and procedures used by the person conducting the testing.

MIF, sequence (P14174 2-115): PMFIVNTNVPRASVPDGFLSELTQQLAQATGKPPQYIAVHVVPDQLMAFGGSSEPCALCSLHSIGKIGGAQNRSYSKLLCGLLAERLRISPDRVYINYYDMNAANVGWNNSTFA

Compound	Tautomerase Inhibition pIC50
COc1ccc(C(=O)Nc2ccc(-c3ccco3)nn2)c(OC)c1 [Compound 14, N-(6-(furan-2-yl)pyridazin-3-yl)-2,4-dimethoxybenzamide]	5.91
COc1cc(N2CC3CC(C2)O3)ccc1C(=O)Nc1nnc(-c2cccs2)o1 [Compound 33, 4-(6-oxa-3-azabicyclo[3.1.1]heptan-3-yl)-2-methoxy-N-(5-(thiophen-2-yl)-1,3,4-oxadiazol-2-yl)benzamide]	7.29
COC(=O)c1ccccc1C(=O)Nc1nnc(-c2cccs2)o1 [Compound 12, methyl 2-((5-(thiophen-2-yl)-1,3,4-oxadiazol-2-yl)carbamoyl)benzoate]	<5
COc1ccc(C(=O)Nc2nnc(-c3ccsc3)o2)c(OC)c1 [Compound 5, 2,4-dimethoxy-N-(5-(thiophen-3-yl)-1,3,4-oxadiazol-2-yl)benzamide]	7.73
O=C(Nc1nnc(-c2ccco2)o1)[C@H]1CCN(Cc2ccccc2)C1 [Compound 3, (S)-1-benzyl-N-(5-(furan-2-yl)-1,3,4-oxadiazol-2-yl)pyrrolidine-3-carboxamide]	<5
COc1ccc(C(=O)Nc2nnc(-c3sccc3F)o2)c(OC)c1 [Compound 8, N-(5-(3-fluorothiophen-2-yl)-1,3,4-oxadiazol-2-yl)-2,4-dimethoxybenzamide]	6.54
O=C(Cc1ccccc1)Nc1nnc(-c2cccs2)o1 [Compound 13, 2-phenyl-N-(5-(thiophen-2-yl)-1,3,4-oxadiazol-2-yl)acetamide]	<5
COc1cc(O)ccc1C(=O)Nc1nnc(-c2cccs2)o1 [Compound 16, 4-hydroxy-2-methoxy-N-(5-(thiophen-2-yl)-1,3,4-oxadiazol-2-yl)benzamide]	7.09
CCOc1ccccc1C(=O)Nc1nnc(-c2cccs2)o1 [Compound 10, 2-ethoxy-N-(5-(thiophen-2-yl)-1,3,4-oxadiazol-2-yl)benzamide]	5.90
COc1cc(CCCC#N)ccc1C(=O)Nc1nnc(-c2cccs2)o1 [Compound 25, 4-(3-cyanopropyl)-2-methoxy-N-(5-(thiophen-2-yl)-1,3,4-oxadiazol-2-yl)benzamide]	7.68
COc1cc(N2CC3CC(C2)O3)ccc1C(=O)NCc1nnc(-c2cccs2)o1 [Compound 57, 4-(6-oxa-3-azabicyclo[3.1.1]heptan-3-yl)-2-methoxy-N-((5-(thiophen-2-yl)-1,3,4-oxadiazol-2-yl)methyl)benzamide]	6.29
COc1ccc(C(=O)Nc2nnc(-c3sccc3C)o2)c(OC)c1 [Compound 7, 2,4-dimethoxy-N-(5-(3-methylthiophen-2-yl)-1,3,4-oxadiazol-2-yl)benzamide]	<5
COc1cc(CCCc2nn[nH]n2)ccc1C(=O)Nc1nnc(-c2cccs2)o1 [Compound 26, 4-(3-(2H-tetrazol-5-yl)propyl)-2-methoxy-N-(5-(thiophen-2-yl)-1,3,4-oxadiazol-2-yl)benzamide]	7.95
COc1ccc(C(=O)Nc2nnc(-c3ccc(O)cc3)o2)c(OC)c1 [Compound 4, N-(5-(4-hydroxyphenyl)-1,3,4-oxadiazol-2-yl)-2,4-dimethoxybenzamide]	5.58

Next, values leading:

Tautomerase Inhibition pIC50	Compound
<5	COc1cc(N2CCOCC2)ccc1C(=O)NCc1nnc(-c2ccns2)o1 [Compound 61, N-((5-(isothiazol-5-yl)-1,3,4-oxadiazol-2-yl)methyl)-2-methoxy-4-morpholinobenzamide]
<5	COc1ncccc1C(=O)NCc1nnc(-c2cccs2)o1 [Compound 48, 2-methoxy-N-((5-(thiophen-2-yl)-1,3,4-oxadiazol-2-yl)methyl)nicotinamide]
3.23	COc1cc(N2CCOCC2)ccc1C(=O)N(C)C(C)(C)c1nnc(-c2cccs2)o1 [Compound 68, 2-methoxy-N-methyl-4-morpholino-N-(2-(5-(thiophen-2-yl)-1,3,4-oxadiazol-2-yl)propan-2-yl)benzamide]
<5	COc1cc(N2CCOCC2)ccc1C(=O)N(C)c1nnc(-c2cncs2)o1 [Compound 36, 2-methoxy-N-methyl-4-morpholino-N-(5-(thiazol-5-yl)-1,3,4-oxadiazol-2-yl)benzamide]
6.22	COc1cc(N2CC(C)OC(C)C2)ccc1C(=O)NCc1nnc(-c2cccs2)o1 (centres unmarked) [Compound 55, 4-(2,6-dimethylmorpholino)-2-methoxy-N-((5-(thiophen-2-yl)-1,3,4-oxadiazol-2-yl)methyl)benzamide]
<5	COc1cc(N2CCOCC2)ccc1C(=O)NC(C)(C)c1nnc(-c2cccs2)o1 [Compound 65, 2-methoxy-4-morpholino-N-(2-(5-(thiophen-2-yl)-1,3,4-oxadiazol-2-yl)propan-2-yl)benzamide]
7.90	COc1cc(N2CCCC2C(=O)O)ccc1C(=O)Nc1nnc(-c2cccs2)o1 (centres unmarked) [Compound 30, (3-methoxy-4-((5-(thiophen-2-yl)-1,3,4-oxadiazol-2-yl)carbamoyl)phenyl)proline]
<5	CN1CCC(C(=O)NCc2nnc(-c3cccs3)o2)CC1 [Compound 50, 1-methyl-N-((5-(thiophen-2-yl)-1,3,4-oxadiazol-2-yl)methyl)piperidine-4-carboxamide]
<5	COc1c(C(=O)NCc2nnc(-c3cccs3)o2)cccc1N1CCOCC1 [Compound 54, 2-methoxy-3-morpholino-N-((5-(thiophen-2-yl)-1,3,4-oxadiazol-2-yl)methyl)benzamide]
8.16	COc1cc(N2CCCC(C(=O)O)C2)ccc1C(=O)Nc1nnc(-c2cccs2)o1 (centres unmarked) [Compound 31, 1-(3-methoxy-4-((5-(thiophen-2-yl)-1,3,4-oxadiazol-2-yl)carbamoyl)phenyl)piperidine-3-carboxylic Acid]
<5	COc1cc(N2CCOCC2)ccc1S(=O)(=O)Nc1nnc(-c2cncs2)o1 [Compound 35, 2-methoxy-4-morpholino-N-(5-(thiazol-5-yl)-1,3,4-oxadiazol-2-yl)benzenesulfonamide]
6.21	COCCOc1ccc(C(=O)NCc2nnc(-c3cccs3)o2)c(OC)c1 [Compound 71, 2-methoxy-4-(2-methoxyethoxy)-N-((5-(thiophen-2-yl)-1,3,4-oxadiazol-2-yl)methyl)benzamide]
7.44	COc1cc(N2CCOCC2)ccc1C(=O)Nc1nnc(-c2cccs2)o1 [Compound 37, 2-methoxy-4-morpholino-N-(5-(thiophen-2-yl)-1,3,4-oxadiazol-2-yl)benzamide]
<5	CCN(Cc1nnc(-c2cccs2)o1)C(=O)c1ccc(N2CCOCC2)cc1OC [Compound 53, N-ethyl-2-methoxy-4-morpholino-N-((5-(thiophen-2-yl)-1,3,4-oxadiazol-2-yl)methyl)benzamide]
1.77	O=C(NCc1nnc(-c2cccs2)o1)c1ccccc1OC(F)(F)F [Compound 41, N-((5-(thiophen-2-yl)-1,3,4-oxadiazol-2-yl)methyl)-2-(trifluoromethoxy)benzamide]
<5	COc1cc(N2CCOCC2)ccc1C(=O)NC1(c2nnc(-c3cccs3)o2)CC1 [Compound 66, 2-methoxy-4-morpholino-N-(1-(5-(thiophen-2-yl)-1,3,4-oxadiazol-2-yl)cyclopropyl)benzamide]
<5	COc1cc(N2CCOCC2)ccc1C(=O)NCc1nnc(-c2nccs2)o1 [Compound 62, 2-methoxy-4-morpholino-N-((5-(thiazol-2-yl)-1,3,4-oxadiazol-2-yl)methyl)benzamide]
<5	O=C(NCc1nnc(-c2cccs2)o1)C1CCCCC1 [Compound 49, N-((5-(thiophen-2-yl)-1,3,4-oxadiazol-2-yl)methyl)cyclohexanecarboxamide]
6.12	COc1cc(OCCO)ccc1C(=O)NCc1nnc(-c2cccs2)o1 [Compound 70, 4-(2-hydroxyethoxy)-2-methoxy-N-((5-(thiophen-2-yl)-1,3,4-oxadiazol-2-yl)methyl)benzamide]

same assay, conditions: read-out: Tautomerase Inhibition pIC50 (converted)

IC50 [µM]	Compound
0.0186	COc1cc([C@H]2CC[C@@H](C(=O)O)CC2)ccc1C(=O)Nc1nnc(-c2cccs2)o1 [Compound 27, Cis-4-(3-methoxy-4-((5-(thiophen-2-yl)-1,3,4-oxadiazol-2-yl)carbamoyl)phenyl)cyclohexane-1-carboxylic acid]
0.038	COc1cc([C@H]2CC[C@H](C(=O)O)CC2)ccc1C(=O)Nc1nnc(-c2cccs2)o1 [Compound 28, Trans-4-(3-methoxy-4-((5-(thiophen-2-yl)-1,3,4-oxadiazol-2-yl)carbamoyl)phenyl)cyclohexane-1-carboxylic acid]
